{
  "source": "patent US9862674B2",
  "about": "“Therapeutic compounds and methods of use” (University of Florida Research Foundation, Inc., priority 2007, dated 2018)",
  "key": {"5HT2A receptor [1]": {"biological_target": "T1, 5HT2A receptor (Homo sapiens, UniProt P28223)", "T1 sequence (P28223 whole entry)": "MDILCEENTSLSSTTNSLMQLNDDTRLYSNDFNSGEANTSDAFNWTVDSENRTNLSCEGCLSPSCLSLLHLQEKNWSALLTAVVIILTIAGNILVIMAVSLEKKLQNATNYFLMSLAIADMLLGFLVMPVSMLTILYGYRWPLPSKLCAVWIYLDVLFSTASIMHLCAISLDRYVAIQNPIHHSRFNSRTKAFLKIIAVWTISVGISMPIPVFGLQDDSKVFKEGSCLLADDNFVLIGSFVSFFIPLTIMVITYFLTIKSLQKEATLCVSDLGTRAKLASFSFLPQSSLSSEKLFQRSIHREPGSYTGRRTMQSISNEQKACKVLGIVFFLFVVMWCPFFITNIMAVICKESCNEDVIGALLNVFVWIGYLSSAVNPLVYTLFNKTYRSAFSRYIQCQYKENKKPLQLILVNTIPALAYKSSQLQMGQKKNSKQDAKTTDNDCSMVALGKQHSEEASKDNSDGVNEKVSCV", "assay": "PLC/[3H]-IP formation in CHO cells transiently transfected with human 5HT2A cDNA (agonist and antagonist mode)", "format": "cell-based", "design": "host or cells: CHO-K1 (ATCC CCL-61), transient transfection"}, "5HT2C receptors [2]": {"biological_target": "T2, 5HT2C receptors (Homo sapiens, UniProt P28335)", "T2 sequence (P28335 33-458)": "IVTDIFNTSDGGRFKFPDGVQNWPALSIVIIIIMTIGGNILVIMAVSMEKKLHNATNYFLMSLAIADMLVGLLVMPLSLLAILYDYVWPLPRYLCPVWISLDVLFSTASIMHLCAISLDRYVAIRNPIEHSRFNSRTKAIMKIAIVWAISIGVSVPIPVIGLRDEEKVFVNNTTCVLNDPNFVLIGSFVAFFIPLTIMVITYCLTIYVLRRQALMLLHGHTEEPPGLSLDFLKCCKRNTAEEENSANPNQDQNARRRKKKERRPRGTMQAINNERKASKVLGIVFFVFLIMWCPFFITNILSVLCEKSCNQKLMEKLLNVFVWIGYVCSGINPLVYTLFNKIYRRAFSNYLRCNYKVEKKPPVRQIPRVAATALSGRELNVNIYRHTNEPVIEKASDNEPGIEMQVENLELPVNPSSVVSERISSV", "assay": "PDSP (2005) functional activity of APTs at 5HT2C receptors", "format": "cell-based", "conditions": "preliminary data"}, "5HT2A receptor [3]": {"biological_target": "T1, 5HT2A receptor", "assay": "PDSP (2005) 5HT2A receptor-mediated PLC/[3H]-IP formation", "format": "cell-based", "conditions": "concentrations to 10 μM; not shown"}, "5HT2C receptors [4]": {"biological_target": "T2, 5HT2C receptors", "assay": "Radioreceptor saturation and competition binding, [3H]-mesulergine labeled 5-HT2C receptor membranes from transfected CHO-K1 cells"}, "[5]": {"system": "cocaine self-administration", "conditions": "rat; cited from earlier work"}, "5HT2A receptor [6]": {"biological_target": "T1, 5HT2A receptor", "assay": "Radioreceptor saturation and competition binding, [3H]-ketanserin labeled 5-HT2A receptor membranes from transfected CHO-K1 cells", "design": "host or cells: CHO-K1 (ATCC CCL-61), transient transfection", "conditions": "saturation binding"}, "[7]": {"system": "5HT2C receptors over 5HT2A receptors", "conditions": "in vitro; cited from earlier work"}},
  "data": [
    {"compound": "NCCc1c[nH]c2ccc(O)cc12", "note": "[5-HT, 5-hydroxytryptamine]", "values": [
      {"measurement": "5HT2A PLC/[3H]-IP formation stimulated by agonist", "setting": "5HT2A receptor [1]; 5-HT 1.0 μM", "result": "~250", "unit": "% basal control"},
      {"measurement": "maximal PLC/[3H]-IP formation, 5HT2A", "setting": "5HT2A receptor [1]; at Emax concentration", "result": "~300", "unit": "% basal control activity"}
    ]},
    {"compound": "CN(C)C1CCc2c(cccc2-c2ccccc2)C1", "note": "(stereo not shown) [32 (5APT)]", "values": [
      {"measurement": "EC50", "setting": "5HT2C receptors [2]", "result": "~80", "unit": "nM"},
      {"measurement": "Emax at 5HT2C (PDSP)", "setting": "5HT2C receptors [2]", "result": "~75", "unit": "% 5HT value"},
      {"measurement": "functional character at 5HT2C (PDSP)", "setting": "5HT2C receptors [2]", "result": "moderate potency partial agonist"},
      {"measurement": "activation of 5HT2A receptor-mediated PLC/[3H]-IP formation (PDSP)", "setting": "5HT2A receptor [3]", "result": "did not activate"},
      {"measurement": "Ki", "setting": "5HT2C receptors [4]", "result": "320 ± 11", "unit": "nM"}
    ]},
    {"compound": "CN(C)C1CCc2c(cccc2-c2cccc(C(F)(F)F)c2)C1", "note": "(stereo not shown) [33 (CF3^−5APT)]", "values": [
      {"measurement": "Ki", "setting": "5HT2C receptors [4]", "result": "~190", "unit": "nM"}
    ]},
    {"compound": "CN(C)C1CCc2c(cccc2-c2cccc(Cl)c2)C1", "note": "(stereo not shown) [35 (Cl-5APT)]", "values": [
      {"measurement": "Ki", "setting": "5HT2C receptors [4]", "result": "~220", "unit": "nM"}
    ]},
    {"compound": "CN(C)C1CCc2cc(-c3ccccc3)ccc2C1", "note": "(stereo not shown) [36 (6APT)]", "values": [
      {"measurement": "Ki", "setting": "5HT2C receptors [4]", "result": 1800, "unit": "nM"}
    ]},
    {"compound": "CN(C)C1CCc2cc(-c3cccc(C(F)(F)F)c3)ccc2C1", "note": "(stereo not shown) [37 (CF3^−6APT)]", "values": [
      {"measurement": "Ki", "setting": "5HT2C receptors [4]", "result": "~1500", "unit": "nM"}
    ]},
    {"compound": "CN(C)C1CCc2cc(-c3cccc(Br)c3)ccc2C1", "note": "(stereo not shown) [40 (Br-6APT)]", "values": [
      {"measurement": "Ki", "setting": "5HT2C receptors [4]", "result": "540 ± 10", "unit": "nM"}
    ]},
    {"compound": "COc1cccc([C@H](O)C2CCN(CCc3ccc(F)cc3)CC2)c1OC", "note": "[M100907]", "values": [
      {"measurement": "effect on rate of cocaine self-administration", "setting": "[5]", "result": "does not alter responding rate"}
    ]},
    {"compound": "Cc1cc2c(cc1Cl)N(C(=O)Nc1ccc(Oc3cccnc3C)nc1)CC2", "note": "[SB242084]", "values": [
      {"measurement": "effect on rate of cocaine self-administration", "setting": "[5]", "result": "increases the rate of cocaine self-administration dose-dependently"}
    ]},
    {"compound": "[3H]C([3H])(N1CCC(C(=O)c2ccc(F)cc2)CC1)C([3H])([3H])n1c(=O)[nH]c2ccccc2c1=O", "note": "[[^3H]-Ketanserin]", "values": [
      {"measurement": "Bmax of 5HT2A receptors labeled", "setting": "5HT2A receptor [6]", "result": "1.73±0.11", "unit": "pmol/mg protein"}
    ]},
    {"compound": "C[C@H]1CNCCc2ccc(Cl)cc21", "note": "[lorcaserin]", "values": [
      {"measurement": "selectivity for activation of 5HT2C receptors over 5HT2A receptors", "setting": "[7]", "result": 15, "unit": "fold"}
    ]}
  ]
}
